Assay results taken from patent US10316017B2, “COT modulators and methods of use thereof” (Gilead Sciences, Inc., priority 2015, dated 2019).
pEC50, pIC50: −log10 of the molar value.

Assays:
[1] = test system: TNFα production in LPS-stimulated human monocytes; experiment: Cot Monocyte TNFα Cell Based Assay; conditions: Homo sapiens, Monocyte, TNFα in LPS-stimulated human monocytes; read-out: EC50 TNF
How it was run: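 5,000 cells/well; cmpd 1 h, 37 °C, 0.5% DMSO final; LPS 50 pg/ml, 4 h, 37 °C; media TNFα by HTRF sandwich (cryptate/XL665), RT overnight; % control vs unstimulated/stimulated wells.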

[2] = target: T1, human Cot catalytic domain (30-397 amino acids) (Homo sapiens, UniProt P41279); experiment: High Throughput Cot Biochemical Assay (KinEASE TR-FRET); conditions: Cot biochemical HTRF (KinEASE TR-FRET) assay; read-out: IC50 HTRF
T1 construct: Purified recombinant human Cot catalytic domain (30-397 amino acids) was purchased from Cama Biosciences; purchased Cama Biosciences (so in the source)
How it was run: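 First, purified human Cot (aa 30-397) at 5 nM phosphorylates an XL665-labeled STK3 peptide (1 μM) at 400 μM ATP, pH 7.0, 0.1% DMSO. Then a europium-conjugated phospho-specific antibody binds the product, giving the TR-FRET signal.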

T1 sequence (P41279 30-397): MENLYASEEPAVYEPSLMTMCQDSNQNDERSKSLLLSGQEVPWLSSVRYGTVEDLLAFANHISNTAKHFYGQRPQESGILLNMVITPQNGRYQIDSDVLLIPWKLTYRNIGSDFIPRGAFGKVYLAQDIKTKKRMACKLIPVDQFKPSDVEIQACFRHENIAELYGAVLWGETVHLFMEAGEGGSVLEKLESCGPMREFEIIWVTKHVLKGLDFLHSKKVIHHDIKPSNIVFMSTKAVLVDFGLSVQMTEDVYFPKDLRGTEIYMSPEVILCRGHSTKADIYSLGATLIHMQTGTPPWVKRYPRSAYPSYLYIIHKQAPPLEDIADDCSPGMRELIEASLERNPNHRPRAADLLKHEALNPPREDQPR

Row | SMILES | pEC50 [1] | pIC50 [2]
1 | CC(C)(C)N1CCC(n2cc([C@@H](Nc3cc(Cl)c4ncc(C#N)c(Nc5ccc(Cl)c(Cl)c5)c4c3)c3ccc(Cl)cc3)nn2)CC1 [Example 765, (S)-6-(((1-(1-(tert-butyl)piperidin-4-yl)-1H-1,2,3-triazol-4-yl)(4-chlorophenyl)methyl)amino)-8-chloro-4-((3,4-dichlorophenyl)amino)quino1ine-3-carbonitrile] | 5.89 | 7.15
2 | CC(C)(C)N1CCC(n2cc([C@@H](Nc3cc(Cl)c4ncc(C#N)c(Nc5ccc(F)cc5)c4c3)c3ccc(Cl)cc3)nn2)CC1 [Example 766, (S)-6-(((1-(1-(tert-butyl)piperidin-4-yl)-1H-1,2,3-triazol-4-yl)(4-chlorophenyl)methyl)amino)-8-chloro-4-((4-fluorophenyl)amino)quinoline-3-carbonitrile] | 5.75 | 7.39
3 | CC(C)(C)N1CCC(n2cc([C@@H](Nc3cc(Cl)c4ncc(C#N)c(Nc5cccc(F)c5)c4c3)c3ccc(Cl)cc3)nn2)CC1 [Example 767, (S)-6-(((1-(1-(tert-butyl)piperidin-4-yl)-1H-1,2,3-triazol-4-yl)(4-chlorophenyl)methyl)amino)-8-chloro-4-((3-fluorophenyl)amino)quinoline-3-carbonitrile] | 5.90 | 7.32
4 | CC(C)(C)N1CCC(n2cc([C@@H](Nc3cc(Cl)c4ncc(C#N)c(Nc5ccccc5F)c4c3)c3ccc(Cl)cc3)nn2)CC1 [Example 768, (S)-6-(((1-(1-(tert-butyl)piperidin-4-yl)-1H-1,2,3-triazol-4-yl)(4-chlorophenyl)methyl)amino)-8-chloro-4-((2-fluorophenyl)amino)quinoline-3-carbonitrile] | 5.60 | 7.08
5 | CCN1CC2(CC(n3cc([C@@H](Nc4cc(Cl)c5ncc(C#N)c(Nc6ccc(F)c(Cl)c6)c5c4)c4ccccc4)nn3)C2)C1 [Example 774] | 6.90 | 8.52
6 | CCN1CCC(n2cc([C@@H](Nc3ccc4ncc(C#N)c(Nc5ccc(F)c(Cl)c5)c4c3)c3ccccc3)nn2)CC1 [Example 779, (S)-4-((3-chloro-4-fluorophenyl)amino)-6-(((1-(1 ethylpiperidin-4-yl)-1H-1,2,3-triazol-4-yl)(phenyl)methyl)amino)quinoline-3-carbonitrile] | 6.71 | 8.40
7 | CC(C)(C)N1CCC(n2cc([C@@H](Nc3cc(Cl)c4ncc(C#N)c(Nc5cncc(Cl)c5)c4c3)c3ccccc3)nn2)CC1 [Example 780, (S)-6-(((1-(1-(tert-butyl)piperidin-4-yl)-1H-1,2,3-triazol-4-yl)(phenyl)methyl)amino)-8-chloro-4-((5-chloropyridin-3-yl)amino)quinoline-3-carbonitrile] | 6.06 | 7.70

Results, then the molecule that gave them:

Row | pEC50 [1] | pIC50 [2] | SMILES
8 | 5.49 | 7.42 | CC(C)(C)N1CCC(n2cc([C@@H](Nc3cc(Cl)c4ncc(C#N)c(Nc5cc(F)cc(F)c5)c4c3)c3ccc(Cl)cc3)nn2)CC1 [Example 764, (S)-6-(((1-(1-(tert-butyl)piperidin-4-yl)-1H-1,2,3-triazol-4-yl)(4-chlorophenyl)methyl)amino)-8-chloro-4-((3,5-difluorophenyl)amino)quinoline-3-carbonitrile]
9 | 5.16 | 7.14 | CC(C)(C)N1CCC(n2cc([C@@H](Nc3cc(Cl)c4ncc(C#N)c(Nc5ccccc5)c4c3)c3ccc(Cl)cc3)nn2)CC1 [Example 777, (S)-6-(((1-(1-(tert-butyl)piperidin-4-yl)-1H-1,2,3-triazol-4-yl)(4-chlorophenyl)methyl)amino)-8-chloro-4-(phenylamino)quinoline-3-carbonitrile]
10 | 6.52 | 8.70 | N#Cc1cnc2c(Cl)cc(N[C@@H](c3ccccc3)c3cn(C4CCNCC4)nn3)cc2c1Nc1ccc(F)c(Cl)c1 [Example 778, (S)-8-chloro-4-((3-chloro-4-fluorophenyl)amino)-6-((phenyl (1-(piperidin-4-yl)-1H-1,2,3-triazol-4-yl)methyl)amino) quinoline-3-carbonitrile]
